Patent publication US5399570A, “Aspartic acid derivatives, and their use for inhibiting platelete aggregation” (Cassella Aktiengesellschaft, priority 1992, dated 1995)
Where two headings read alike, the source gives them in different places.

What was measured:
[1] = system: filtered, plasma-free human platelets; experiment: inhibition of aggregation of filtered human platelets after ADP or thrombin stimulation; type: cell-based; details: Platelet
Protocol: (§1) The compounds of the formula I are in particular tested for their inhibiting action in blood platelet aggregation and the adhesion of fibrinogen to blood platelets. The measurement of aggregation and the binding of ^125 I-fibrinogen is carried out on filtered, plasma-free human platelets. Platelet activation is effected by means of ADP or thrombin.
As a functional test, the inhibition of aggregation of filtered human platelets is measured after ADP or thrombin stimulation by the compounds according to the invention. The IC50 value of inhibition is given.

[2] = target: T1, glycoprotein IIb/IIIa localised on blood platelets (fibrinogen receptor) (Homo sapiens, UniProt P05106+P08514); experiment: inhibition of binding of ^125 I-fibrinogen to human platelets after stimulation with ADP; details: after stimulation with ADP (10 μM)
T1 construct: carried out on filtered, plasma-free human platelets; endogenous in cells; host or cells: filtered, plasma-free human platelets, stimulated with ADP (10 μM)
T1 sequence (P08514 32-887 limits assumed): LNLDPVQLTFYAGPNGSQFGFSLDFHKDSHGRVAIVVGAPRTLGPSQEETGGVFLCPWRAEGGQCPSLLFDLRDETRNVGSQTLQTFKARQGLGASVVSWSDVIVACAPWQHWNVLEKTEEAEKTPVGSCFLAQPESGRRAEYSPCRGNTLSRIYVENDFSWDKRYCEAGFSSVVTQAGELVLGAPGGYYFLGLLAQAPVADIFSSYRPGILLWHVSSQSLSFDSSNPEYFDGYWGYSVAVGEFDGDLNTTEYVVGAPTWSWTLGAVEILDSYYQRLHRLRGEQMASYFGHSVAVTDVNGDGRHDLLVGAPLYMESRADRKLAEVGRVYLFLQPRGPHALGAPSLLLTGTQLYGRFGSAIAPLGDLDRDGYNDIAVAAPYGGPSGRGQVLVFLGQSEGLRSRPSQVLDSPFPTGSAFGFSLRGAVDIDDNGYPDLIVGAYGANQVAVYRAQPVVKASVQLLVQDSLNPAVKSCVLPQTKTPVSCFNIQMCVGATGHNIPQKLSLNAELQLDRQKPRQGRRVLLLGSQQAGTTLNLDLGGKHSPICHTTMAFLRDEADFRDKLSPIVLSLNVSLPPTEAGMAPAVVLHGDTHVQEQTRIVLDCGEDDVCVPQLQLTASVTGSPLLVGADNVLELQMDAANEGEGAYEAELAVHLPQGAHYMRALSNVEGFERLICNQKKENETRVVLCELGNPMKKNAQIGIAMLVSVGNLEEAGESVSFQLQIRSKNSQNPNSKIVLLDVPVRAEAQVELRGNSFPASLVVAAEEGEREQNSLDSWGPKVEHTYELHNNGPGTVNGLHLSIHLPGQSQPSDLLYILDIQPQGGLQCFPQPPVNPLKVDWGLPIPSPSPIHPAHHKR
T1 sequence (P05106 27-788): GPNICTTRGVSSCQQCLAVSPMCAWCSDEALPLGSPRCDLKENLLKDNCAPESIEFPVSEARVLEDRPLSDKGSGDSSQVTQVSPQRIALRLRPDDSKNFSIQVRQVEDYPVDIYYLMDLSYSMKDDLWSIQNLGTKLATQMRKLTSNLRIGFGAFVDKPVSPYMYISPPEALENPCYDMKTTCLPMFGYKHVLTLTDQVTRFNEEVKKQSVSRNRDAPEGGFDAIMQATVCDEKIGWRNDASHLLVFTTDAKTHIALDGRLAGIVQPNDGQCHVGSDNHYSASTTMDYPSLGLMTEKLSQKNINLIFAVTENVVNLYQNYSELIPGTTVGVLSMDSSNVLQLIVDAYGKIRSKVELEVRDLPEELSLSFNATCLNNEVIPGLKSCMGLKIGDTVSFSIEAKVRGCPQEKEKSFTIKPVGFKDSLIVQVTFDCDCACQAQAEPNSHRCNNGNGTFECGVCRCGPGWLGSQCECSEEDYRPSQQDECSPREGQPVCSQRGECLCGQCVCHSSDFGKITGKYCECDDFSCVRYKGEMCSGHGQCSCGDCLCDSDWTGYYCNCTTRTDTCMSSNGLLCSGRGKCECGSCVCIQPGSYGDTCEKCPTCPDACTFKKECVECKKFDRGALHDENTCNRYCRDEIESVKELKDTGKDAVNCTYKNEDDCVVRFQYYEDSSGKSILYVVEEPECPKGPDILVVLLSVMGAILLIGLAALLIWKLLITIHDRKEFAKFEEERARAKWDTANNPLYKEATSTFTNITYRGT
Description: Integrins are cell membrane glycoproteins and mediate cell adhesion by interaction with a large number of extracelluar proteins, such as fibronectin, laminin, fibrinogen, collagen, vitronectin, and yon Willebrand factor or with other cell membrane proteins, such as, for example, ICAM-1. An important receptor of the integrin family is glycoprotein IIb/IIIa localised on blood platelets (fibrinogen receptor)--a key protein in platelet-platelet interaction and thrombus formation. A central fragment in the receptor recognition sequence of these proteins is the tripeptide Arg--Gly--Asp (E. Ruoslahti and M. D. Pierschbacher, Science 238 (1987) 491-497; D. R. Phillips, I. F. Charo, L. V. Parise and L. A. Fitzgerald, Blood 71 (1988) 831-843).
as §1
The Ki value of the inhibition of binding of ^125 I-fibrinogen after stimulation with ADP (10 μm) is given.
Reference: J. S. Bennett and G. Vilaire, J. Clin. Invest. 64, (1979), 1393-1401.

[3] = ADP stimulation, read-out: Inhibition of platelet aggregation ADP, IC50 value of inhibition
[4] = thrombin stimulation, read-out: Inhibition of platelet aggregation Thrombin, IC50 value of inhibition

For `CC(C)[C@H](NC(=O)[C@H](CC(=O)O)NC(=O)c1ccc(CC2CCN(C(=N)N)CC2)cc1)C(=O)O` [Example 1, p-(4-(N-Amidinopiperidinyl)methyl)benzoyl-L-aspartyl-L-valine], the IC50 [1, 3] was 8 µM and the IC50 [1, 4] was 2 µM.
With `N=C(N)N1CCC(Cc2ccc(C(=O)N[C@@H](CC(=O)O)C(=O)NC3CCCCC3)cc2)CC1` [Example 2, p-(4-(N-Amidinopiperidinyl)methyl)benzoyl-L-aspartylcyclohexylamide] the IC50 [1, 3] was 15 µM and the IC50 [1, 4] was 10 µM.
With `N=C(N)N1CCC(Cc2ccc(C(=O)N[C@@H](CC(=O)O)C(=O)NCCC(c3ccccc3)c3ccccc3)cc2)CC1` [Example 3] the IC50 [1, 3] was 15 µM and the IC50 [1, 4] was 5 µM.
In the case of `CC(C)NC(=O)[C@H](CC(=O)O)NC(=O)c1ccc(CC2CCN(C(=N)N)CC2)cc1` [Example 4], the IC50 [1, 3] is reported as 20 µM, the IC50 [1, 4] is reported as 15 µM and the Ki [2] is reported as 10 µM.
`CN(CC(=O)N[C@@H](CC(=O)O)C(=O)NCCC(c1ccccc1)c1ccccc1)C(=O)c1ccc(CNC(=N)N)cc1` [Example 9, p-Guanidinomethylbenzoylsarcosyl-L-aspartyl-3,3-diphenylpropylamide] was tested, and the IC50 [1, 3] was 2 µM, the IC50 [1, 4] was 2 µM and the Ki [2] was 1.8 µM.
For `CN(CC(=O)N[C@@H](CC(=O)O)C(=O)NC(c1ccccc1)c1ccccc1)C(=O)[C@H]1CC[C@H](CNC(=N)N)CC1` [Example 12, trans-4 -Guanidinomethylcyclohexanecarboxylsarcosyl-L-aspartylbenzhydrylamide], the IC50 [1, 3] was 8 µM, the IC50 [1, 4] was 4 µM and the Ki [2] was 3.1 µM.
With `CC(C)[C@H](NC(=O)[C@H](CC(=O)O)NC(=O)c1ccc(OC2CCN(C(=N)N)CC2)cc1)C(=O)O` [Example 14, p-(4-N-Amidinopiperidinyloxy)benzoyl-L-aspartyl-L-valine] the IC50 [1, 3] was 4.5 µM, the IC50 [1, 4] was 1.5 µM and the Ki [2] was 0.8 µM.
